Source: patent US5491072A, “N-alkylacridan carboxyl derivatives useful for chemiluminescent detection” (Lumigen, Inc., priority 1993, dated 1996)

How the values were obtained:
horseradish peroxidase [1] = target: T1, horseradish peroxidase (Armoracia rusticana, UniProt P00433); experiment: Sensitivity of detection of horseradish peroxidase using 1b and hydrogen peroxide; assay type: biochemical; settings: 1b 46 μmol/L, 0.2 mmol/L hydrogen peroxide, 37° C.; for linear assay range for HRP: pH 8.0 tris
T1 sequence (P00433 31-338 limits assumed): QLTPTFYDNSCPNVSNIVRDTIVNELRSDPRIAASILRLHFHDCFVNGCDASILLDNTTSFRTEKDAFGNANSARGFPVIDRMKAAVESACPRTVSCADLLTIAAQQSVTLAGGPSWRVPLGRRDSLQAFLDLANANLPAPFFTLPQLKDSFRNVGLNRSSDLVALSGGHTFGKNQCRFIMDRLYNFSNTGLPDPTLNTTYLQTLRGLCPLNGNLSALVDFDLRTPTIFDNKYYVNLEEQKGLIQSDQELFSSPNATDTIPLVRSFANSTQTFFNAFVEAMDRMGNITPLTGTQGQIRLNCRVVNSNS
Procedure: (§1) The experiments in the following examples were performed using a Turner Designs TD-20e luminometer fitted with neutral density filter for light attenuation. Data collection, analysis and display were software controlled. Constant temperature was maintained by means of an external circulating water bath connected to the luminometer.
A matrix optimization experiment was done using 1b (0.1 mM-0.05 mM), hydrogen peroxide (4.4 mM-44 μM), HRP (9×10^-19 mol-1.4×10^-12 mol) at 37° C. The final assay reagent consists of 2.25×10^-3 M p-iodophenol, 0.5% Tween 20 and 1×10^-3 M EDTA in pH 8.0, 0.1M tris buffer. The best compromise between sensitivity and dynamic range was obtained using 1b (46 μmol/L) and 0.2 mmol/L hydrogen peroxide. These conditions gave a linear assay for HRP in the range of 9×10^-19 to 1.4×10^-14 mol (detection limit S/B=1.4 after 5 min with 9×10^-19 mol) or in the range of 9×10^-19 to 1.4×10^-15 mol (detection limit S/B=2 after 15 min with 9×10^-19 mol).
FIGS. 2A to 2C show the correlation of corrected signal to background vs. amount of HRP using solutions containing 0.05 mM 1b, 0.5% Tween 20, 1×10^-3 M EDTA in pH 8.0, 0.1M tris buffer.

horseradish peroxidase [2] = target: T1, horseradish peroxidase; experiment: Sensitivity of detection of horseradish peroxidase using 1b and sodium perborate; assay type: biochemical; settings: 1b 46 μmol/L, 0.2 mmol/L perborate, 37° C.; for linear assay range for HRP: pH 8.0 tris
Procedure: as §1
A matrix optimization experiment was done using 1b (0.1 mM-0.05 mM), sodium perborate (3 mM-0.2 mM) and HRP (1.4×10^-18 mol-1.4×10^-14 mol) at 37° C. The final assay reagent consists of 2.25×10^-3 M p-iodophenol, 0.5% Tween 20 and 1×10^-3 M EDTA in pH 8.0, 0.1M tris buffer. The best compromise between sensitivity and dynamic range was obtained using 1b (46 μmol/L) and 0.2 mmol/L perborate. These conditions gave a linear assay for HRP in the range of […] to 1.4×10^-14 mol (detection limit S/B=1.4 after 5 min with 1.4×10^-18 mol) or in the range of 1.4×10^-18 to 1.4×10^-15 mol (detection limit S/B-1.5 after 15 min with 1.4×10^-18 mol).
FIGS. 3A to 3C show the correlation of corrected signal to background vs. amount of HRP using solutions containing 0.05 mM 1b, 0.5% Tween 20, 1×10^-3 M EDTA in pH 8.0, 0.1M tris buffer.

linear assay range for HRP (horseradish peroxidase [1]; after 5 min): 9e-19 to 1.4e-14 mol | linear assay range for HRP (horseradish peroxidase [1]; after 15 min): 9e-19 to 1.4e-15 mol | detection limit S/B (horseradish peroxidase [1]; after 5 min with 9×10^-19 mol HRP): 1.4 | detection limit S/B (horseradish peroxidase [1]; after 15 min with 9×10^-19 mol HRP): 2 | linear assay range for HRP (horseradish peroxidase [2]; after 5 min): 4e-19 to 1.4e-14 mol | linear assay range for HRP (horseradish peroxidase [2]; after 15 min): 1.4e-18 to 1.4e-15 mol | detection limit S/B (horseradish peroxidase [2]; after 5 min with 1.4×10^-18 mol HRP): 1.4
SMILES: CN1c2ccccc2C(C(=O)Oc2ccc(O)cc2)c2ccccc21 [Compound 1b, 4'-Hydroxyphenyl 10-methylacridan-9-carboxylate]
